These results are taken from article PMC5085131, “Cyclic AMP efflux inhibitors as potential therapeutic agents for leukemia” (Oncotarget, 2016).

In experiment [1] the test system is U937 cells. The experiment is described as follows: F-cAMP efflux assay in U937 cells (screen and dose response). The class given is cell-based, human. Particulars: screen at 10 μM, 51 hits retested in dose-response. The protocol: Cells were loaded with F-cAMP as described. Briefly, cells were resuspended in a hypertonic solution containing 10% polyethylene glycol 1000, 0.5 M sucrose, and 250 μM F-cAMP in cRPMI without FBS, incubated 10 min at room temperature, washed, and then resuspended in hypotonic solution (60% cRPMI, 40% sterile water) for 2 min at room temperature to complete F-cAMP loading. Cells were resuspended in cRPMI and equilibrated for 2 h under normal culture conditions.
Samples were evaluated using Accuri C6 or BD FACScan flow cytometers (Becton Dickinson (BD)).
Liquid handling was accomplished with a Biomek FX Multichannel system (Beckman-Coulter, Fullerton, CA, USA) and/or Biotek Multiflo system (Winooski, VT, USA). F-cAMP-loaded U937 cells (2000/well) were seeded into 384-well polypropylene plates (Greiner Bio-One 784201, Monroe, NC, USA). Cells were treated with compounds (10 μM final concentration) from the Prestwick Chemical Library (Illkirch, France) or […] Collection (MicroSource, Gaylordsville, CT, USA) delivered by pintool (V&P Scientific, San Diego, CA), at a final DMSO concentration of 1%. Plates were foil-sealed with AlumaSeal 384™ (Excel Scientific, Victorville, CA, USA), and incubated inverted overnight. Sample plates were analyzed by CyAn flow cytometers (Beckman-Coulter) configured with HyperCyt high-throughput auto-sampler systems (IntelliCyt, Albuquerque, NM, USA) using 488 nm excitation to assess FL-1 (530/40) MFI levels.
Data were analyzed with HyperView software (IntelliCyt) and time-gated to determine data from each well. Wells with ≥ 50 events were evaluated for FL-1 MFI values. Samples with MFI values ≥ 2 standard deviations above the plate mean negative control values were considered “hit” compounds.
To validate sample data and decrease the number of false-positive hits, compounds were assayed in a high-throughput dose response assay. Plates were set up as in the HTS, with the exception that the plate formats contained 10-well dose responses for each hit compound, at final concentrations ranging from 30 μM to 4 nM.
The dose response data were normalized for percent response based on sample FL-1 MFI values in comparison to untreated F-cAMP-loaded cells kept at 4°C overnight or at time = 0, and were fitted by GraphPad Prism 5 software (GraphPad Software, La Jolla, CA, USA) for sigmoidal dose response with constrained hill slope = 1.

Another experiment has as its system Reh. Nature of the experiment: CellTiter-Glo cell viability. The class given is cell-based. To be noted: Homo sapiens, overnight, n = 6, ± SEM, read-out: Compound EC50, Reh (cell viability). The protocol:
(§1) Cell viability was determined with the CellTiter-Glo® Luminescent Cell Viability Assay (Promega). Greiner 655083 had 100 μL cRPMI +/− 4×10^4 cells/well, and dose response curves of compounds ranged from 100 μM to 1.53 nM (1% DMSO). Wells with DMSO-only served as negative controls. Samples were incubated overnight, and the assay was completed according to the manufacturer's protocol. Plates were analyzed using a Victor^3V™ 1420 Multilabel Counter (Perkin Elmer).
Background: Cellular ATP, detected with luciferase, serves as a proxy for viable cell number.

The test system of a further experiment is Nalm 6. Nature of the experiment: CellTiter-Glo cell viability. Particulars: Homo sapiens, overnight, n = 6, ± SEM, read-out: Compound EC50, Nalm 6 (cell viability). The format is cell-based. The protocol: as §1
The subject of the next experiment is MHH Call 3. The experiment is described as follows: CellTiter-Glo cell viability. The class given is cell-based. Particulars: Homo sapiens; overnight, n = 6, ± SEM; read-out: Compound EC50, MHH Call 3 (cell viability). The protocol:
as §1

A further experiment deals with Sup B15. Nature of the experiment: CellTiter-Glo cell viability. The format is cell-based. Particulars: Homo sapiens, overnight, n = 6, ± SEM, read-out: Compound EC50, Sup B15 (cell viability). The protocol:
as §1

The test system of another experiment is RS4;11. Nature of the experiment: CellTiter-Glo cell viability. The class given is cell-based. To be noted: Homo sapiens, overnight, n = 6, ± SEM, read-out: Compound EC50, RS4;11 (cell viability). The protocol:
as §1

The next experiment concerns 697. Nature of the experiment: CellTiter-Glo cell viability. The class given is cell-based. Particulars: Homo sapiens; overnight, n = 6, ± SEM; read-out: Compound EC50, 697 (cell viability). The protocol: as §1
The test system of experiment [2] is U937 cells. Nature of the experiment: CellTiter-Glo cell viability. The format is cell-based. To be noted: Homo sapiens, U-937; overnight, n = 8, ± SEM, fit top = 100, bottom = 0, hill slope = −1; read-out: Compound EC50, U937 (cell viability). The protocol:
as §1

Details of experiment [3]: method as in as printed in each cell. To be noted: previously reported; cited from earlier work.
The next experiment has as its system normal human PBMCs. The experiment is described as follows: CellTiter-Glo cell viability. The format is cell-based. Particulars: PBMC, overnight, n = 6, ± SEM, read-out: Compound EC50, PBMCs (cell viability). The protocol: Healthy PBMCs were obtained from volunteers. Mononuclear cells were purified using Mono-Poly resolving medium (MP Biomedicals, cat. 091698049) according to manufacturer's instructions. PBMCs were resuspended in cRPMI and kept on ice prior to use.
as §1

Another experiment relates to VLA-4. The experiment is described as follows: Kinetic analysis of VLA-4 deactivation (LDV-FITC dissociation) in U937 cells with non-desensitizing FPR1 mutant. The class given is cell-based, human. To be noted: U937 cells pre-activated through FPR1 mutant, 40 μM, 37°C. The protocol:
Kinetic analysis of the binding and dissociation of the LDV-FITC probe was described previously. Briefly, flow cytometric data were acquired at 37°C while the samples were stirred continuously with a stir bar (Bel-Art Products). First, U937 cells transfected with a non-desensitizing mutant of the Formyl Peptide Receptor FPR1 [43] were analyzed for 30-120 s to establish a baseline. The FPR1 mutant triggers VLA-4 activation, which persists for hundreds of seconds, allowing for integrin deactivation to be detected. Next, the LDV-FITC was added and acquisition was re-established. […] Finally, 40 μM of ICE, forskolin (positive control) or vehicle (negative control) were added. Acquisition was re-established, and data were acquired continuously for up to 1024 s.
Therefore, the transition from low to high affinity state led to increased binding of the probe. This was detected as an increase in the median fluorescence intensity (MFI). VLA-4 deactivation led to the dissociation of the probe and decreased MFI [21].

SMILES strings stand for the structures.

In the case of `Oc1c(I)cc(Cl)c2cccnc12` [Clioquinol], the “Outcome of screen for inhibitors of cAMP efflux after dose-response validation” value in the experiment on U937 cells [1] was “potentially active”. For the same compound, the EC50 with Reh was found to be 21.1 ± 4.61 µM; in the experiment with Nalm 6 it was 24.8 ± 12.1 µM; in the experiment with MHH Call 3 it was 67.1 ± 22.9 µM; with Sup B15, 15.4 ± 3.51 µM; in the experiment on RS4;11, 64.4 ± 36.6 µM; in the experiment on 697 it was 18.6 ± 7.74 µM. The EC50 in the experiment with U937 cells [2] is 40.6 ± 10.8 µM; with normal human PBMCs, 87.8 ± 46.8 µM. In addition, the Anticancer effects entry in [3] is “↓cyclin D1 [110]; ↑p21, p27, p53 [106]”. Besides, in experiment [3], the “Potential mechanism(s) of action” value was “↓NF-κB activation [108, 112]; ionophore/chelator activity [106, 108, 112]; proteasome inhibition [107, 109]”.

Turning to `C[C@H]1COC2=C1C(=O)C(=O)c1c2ccc2c1CCCC2(C)C` [Cryptotanshinone], the “Outcome of screen for inhibitors of cAMP efflux after dose-response validation” value in the experiment on U937 cells [1] is listed as “potentially active”. Further, the EC50 in the experiment on Reh worked out at 105 ± 14.6 µM; with Nalm 6, 70.2 ± 29.9 µM; with MHH Call 3, 126 ± 35.9 µM; with Sup B15 it was 29.2 ± 7.58 µM; with RS4;11, 8.36 ± 5.84 µM; in the experiment on 697 it was 67.1 ± 31.8 µM. Moreover, the values for the EC50 in the experiment with U937 cells [2] and with normal human PBMCs were 11.8 ± 6.78 µM and 11.8 ± 3.11 µM, respectively. Also, the Anticancer effects result in experiment [3] was “↓cyclin D1, Bcl-2 [47, 115, 116]; ↑p53, Chk1, Chk2 [120]”. Further, the “Potential mechanism(s) of action” value in [3] was “↓mTOR, STAT3 signaling [116, 117]; ↓eIF-4E [47]”. The “VLA-4 deactivation (dissociation of LDV-FITC)” value (shortened to “VLA-4 deactivation”) in the experiment with VLA-4 was “rapid and reversible VLA-4 deactivation”.

`C=C1C(=O)O[C@H]2[C@H]1CC/C(C)=C/CC[C@@]1(C)O[C@@H]21` [Parthenolide]: in the experiment on U937 cells [1], the “Outcome of screen for inhibitors of cAMP efflux after dose-response validation” value is “potentially active”. Moreover, the EC50 with Reh was found to be 2.19 ± 1.34 µM; in the experiment with Nalm 6, 0.72 ± 0.23 µM; with MHH Call 3 it was 1.97 ± 0.59 µM; in the experiment with Sup B15, 1.54 ± 0.36 µM; in the experiment with RS4;11, 3.07 ± 1 µM; in the experiment on 697, 1.13 ± 0.31 µM. In addition, the EC50 worked out at 2.86 ± 1.55 µM with U937 cells [2] and 56 ± 23.3 µM in the experiment with normal human PBMCs. Moreover, the Anticancer effects result in experiment [3] was “↓VEGF expression & metastasis [61, 124, 125]; ↑p53 activation [48]; ↓cyclin D1 [61, 122]”. In [3], the “Potential mechanism(s) of action” value was “↓NF-κB & AP-1 activation [48, 61, 124, 126, 127]; ↓MAPK/ERK signaling [126, 127]; ↓STAT signaling [128]; ↑ROS[48, 65, 128]”. Also, the “VLA-4 deactivation” value with VLA-4 is “exceeded the effects of the positive control, forskolin”.

For `O=C1C=C2C(=CCOC2O)O1` (centres unmarked) [Patulin], the “Outcome of screen for inhibitors of cAMP efflux after dose-response validation” value in the experiment with U937 cells [1] was “potentially active”. Also, the EC50 worked out at 0.33 ± 0.13 µM in the experiment on Reh; 0.07 ± 0.01 µM with Nalm 6; 0.53 ± 0.17 µM with MHH Call 3; 0.2 ± 0.12 µM with Sup B15; 1.01 ± 0.22 µM in the experiment on RS4;11; 0.13 ± 0.04 µM in the experiment on 697. Further, the EC50 in the experiment on U937 cells [2] amounted to 3.1 ± 2.22 µM; in the experiment on normal human PBMCs, 246 ± 181 µM. Further, the Anticancer effects result in [3] was “↓ERK1/2 activation [52, 133]; ↑UPR[52, 133]; ↑intracellular [Ca2+] [134]”. For the same compound, in [3], the “Potential mechanism(s) of action” value is “↑ROS, DNA damage [57, 59, 132, 133, 135]; ↓glutathione [133, 135]”. Besides, the “VLA-4 deactivation” value in the experiment on VLA-4 was “exceeded the effects of the positive control, forskolin”.

One may read the EC50 as the midpoint of the concentration-response curve.
